Source: patent publication US4004029A, “Compositions and method for treating epilepsy and convulsions” (The Upjohn Company, priority 1975, dated 1977)

Key:
[1] = tested on: electroshock-induced seizures (tonic extensor seizures); test: Protection against electroshock-induced seizures in mice; assay type: in vivo, mice (Cartworth farms, male albino); details: for ED50: 25 milliamps
Description: Med. Chem. 8, 5-8, (1965). […] […] The number of mice protected against tonic extensor seizures is used as a quantal response to calculate the Ed50, by the method of Spearman and […] (see D. J. Finney, "Statistical Methodology in Biological Assay", Hofner Publishing Co., New York, N.Y. 1952, page 524). For control purposes, a group of six mice is similarly treated with diphenylhydantoin and shocked.

[2] = tested on: seizures induced by electroshock; test: Protection against seizures induced by electroshock in rats; assay type: in vivo, rats (Sprague Dawley male albino); details: for ED50: Rattus norvegicus, ip, 150 milliamps
Description: After about thirty minutes, the mice are shocked via ear clip electrodes, with a 60-cycle electrical current for 0.2 second, using a current intensity of 25 milliamps. The number of mice protected against tonic extensor seizures is used as a quantal response to calculate the Ed50, by the method of Spearman and […] (see D. J. Finney, "Statistical Methodology in Biological Assay", Hofner Publishing Co., New York, N.Y. 1952, page 524). For control purposes, a group of six mice is similarly treated with diphenylhydantoin and shocked. […] Protection against seizures induced by electroshock is also shown in rats (Sprague Dawley male albino rats weighting 150 to 300 grams each). The testing procedure is identical to that used in Example 9 supra. except that the electroshock current intensity is increased from 25 to 150 milliamps to accommodate this larger species.

[3] = tested on: electrically induced afterdischarge; test: Depression of electrically induced afterdischarges in the cat; assay type: in vivo, cat (mongrel cats of either sex); design: duration of afterdischarge: unit not given here; details: for duration of afterdischarge: intravenous
Description: N. Strow and C. L. Mitchell, Electroenceph. […] Mongrel cats of either sex weighing 1.5-3.0 kg. are anesthetized with halothane. Two pair of stainless steel screw electrodes are placed bilaterally in the skull for stimulation and recording. The cats are paralyzed with decamethonium, artifically respired and after ninety minutes allowed to blow off the halothane. […] is elicited by electrical stimulation across one pair of electrodes (5 second train of 1 millisecond pulses at 50 pulses per second at 5.0-10 milliamps). Duration of discharge is recorded from the second electrode pair. Two groups of controls are taken before test drug administration and duration of […] measured after each dose of test drug.

[4] = in vivo; details: mouse, ip
[5] = Mus musculus, ip, 0.5 h, absorption time 0.5 (Minutes)

Cc1cccc(C(=O)Nc2c(C)cccc2C)c1N [N'-(2,6-dimethylphenyl)-2-amino-3-methylbenzamide]
ED50 ([1]; IP, absorption time 0.5 (Minutes), 0.5 min): 5.6 mg/kg
ED50 [1, 5]: 7 mg/kg
ED50 ([1]; Mus musculus, po, 1 min, absorption time 1 (Minutes)): 10 mg/kg
ED50 ([1]; Mus musculus, po, 2 min, absorption time 2 (Minutes)): 10 mg/kg
ED50 ([1]; Mus musculus, po, 4 min, absorption time 4 (Minutes)): 11 mg/kg
ED50 ([1]; Mus musculus, po, 8 min, absorption time 8 (Minutes)): 32 mg/kg
ED50 ([1]; Mus musculus, po, 16 min, absorption time 16 (Minutes)): 112 mg/kg
ED50 ([1]; Mus musculus, po, 0.4 h, absorption time 24 (Minutes)): 178 mg/kg
ED50 ([1]; Mus musculus, po, 0.5 h, absorption time 0.5 (Minutes)): 10 mg/kg
duration of action ([1]; electroshock, Table I): long acting
ED50 ([2]; 0.5 h, absorption time 30 min): 4.5 mg/kg
ED50 ([2]; 1 h, absorption time 60 min): 2.5 mg/kg
ED50 ([2]; 4 h, absorption time 240 min): 4.5 mg/kg
ED50 ([2]; 8 h, absorption time 480 min): 7.1 mg/kg
anticonvulsive potency compared with diphenylhydantoin ([2]; electroshock, milligram basis): more potent on a milligram basis than diphenylhydantoin
duration of afterdischarge ([3]; 2.5 mg./kg. total dose): 31
duration of afterdischarge ([3]; 5.0 mg./kg. total dose): 27
duration of afterdischarge ([3]; 10.0 mg./kg. total dose): 4
duration of afterdischarge ([3]; 20.0 mg./kg. total dose): 2
Relative Potency (shortening of afterdischarge) ([3]; relative to diphenylhydantoin on a milligram basis): 1.42
LD50 [4]: 297 mg/kg

O=C1NC(=O)C(c2ccccc2)(c2ccccc2)N1 [diphenylhydantoin, reference compound]
ED50 [1, 5]: 14 mg/kg
ED50 ([2]; 0.5 h, absorption time 30 min): 8 mg/kg
duration of afterdischarge ([3]; 2.5 mg./kg. total dose): 30
duration of afterdischarge ([3]; 5.0 mg./kg. total dose): 32
duration of afterdischarge ([3]; 10.0 mg./kg. total dose): 9
duration of afterdischarge ([3]; 20.0 mg./kg. total dose): 4
